# Where two headings read alike, the source gives them in different places.
# Experiments:
# [1] = tested on: BM cells isolated from leukemic double mutants (LSCs, HSPCs); assay: In vitro treatment of BM cells from leukemic mice; type: cell-based, mouse; conditions: 11, 33 or 100 nM, 72 hours
# Method: Doxorubicin, 0105375, and thioguanosine were added to 11, 33 or 100 nM and cultured for 72 hours and analyzed by flow cytometry for LSCs as in FIGS. 1A-1E. Fold change before and after culture for each population is indicated relative to equivalent vehicle control concentrations.
# Doxorubicin, 0105375, and thioguanosine were added to 11, 33 or 100 nM and cultured for 72 hours and analyzed by flow cytometry for HSPCs as in FIGS. 1A-1E. Fold change before and after culture for each population is indicated relative to equivalent vehicle control concentrations.
# Bone marrow cells from leukemic mice at 8 weeks post-induction were cultured overnight at 5-20×10^4 cells per well in 96-well U-bottom tissue culture plates (Becton, Dickinson and Company; Cat. No. 353077) in HSC expansion media in low O2 conditions as previously described (Perry et al. 2011). Doxorubicin (Sigma; D1515), 0105375 (University of Kansas CMLD compound), or Thioguanosine was mixed with HSC expansion media and added to the cultures to obtain final concentrations of 11, 33, 100 nM. Equivalent amounts of DMSO alone (vehicle control) were added to parallel cultures for comparison. Half-media changes were performed approximately every 24 hours. Cultures were analyzed after 72 hours exposure to the indicated drug.
# [2] = tested on: blast cells, LSCs and HSPCs of leukemic Pten:β-cat^Act mice; type: in vivo
# Method: Leukemic mice were treated with vehicle, chemotherapy, [Low]DXR (5×0.5 mg/kg), clinical DXR (1×20 mg/kg), or chemotherapy+[Low]DXR as described in FIG. S2.
# Average frequency of each population (n≥6 per group) is shown.
# Absolute number/femur±SD of each population (n≥6 per group) is shown.
# At 10 days post-treatment, BM was analyzed by flow cytometry to determine frequency of blast cells. Average frequency±SD (n 6 per group). Note that this experiment used clinical dose (normal) or [Low]
# Alternatively, a single injection on day 1 of 0.8 or 2.5 μg/g of DXR-loaded nanoparticles (NanoDXR) was given with and without chemotherapy. At 10 days post-treatment, BM was analyzed by flow cytometry to determine frequency of LSCs. Shown is average frequency±SD (n 6 per group).
# Alternatively, a single injection on day 1 of 0.8 or 2.5 μg/g of DXR-loaded nanoparticles (NanoDXR) was given with and without chemotherapy. At 10 days post-treatment, BM was analyzed by flow cytometry to determine frequency of HSPCs. Shown is average frequency±SD (n 6 per group).
# Whole bone marrow was isolated from uninduced HSC-SCL-Cre^+ Pten^fx/fx βcat^fx(Exon3)/+ (Pn:β-cat^Act) mice and combined with an equal portion of Cre negative bone marrow from a littermate and transplanted into irradiated (10 Grays) B6.SJL-Ptprc^a Pepc^b/BoyJ (Ptprc) recipients.
# (§1) Chemotherapy for the animal model consisted of Nelarabine (Selleck) and Dexamethasone (BioVision) administered daily for 5 days consecutively. 43.4 mg/ml Nelarabine was administered intravenously via the tail vain according to the formula: Body Weight (g)×5=volume to inject (μl), which yielded 217 mg/kg. 2.5 mg/ml Dexamethasone was injected intraperitoneally according to the formula: Body Weight (g)×4=volume to inject (μl), yielding 10 mg/kg. […] [Low] NanoDXR treatment used doxorubicin nanoparticles (Tran et al. 2014) administered as a single IV injection once per week on day 1 relative to above treatments using 0.8 mg/kg. Maintenance [Low] NanoDXR consisted of once per week injections of 0.4 mg/kg. Groups combining Nelarabine with Doxorubicin used a single injection containing both drugs. All drugs were solubilized in 45% (2-Hydroxypropyl)-p-cyclodextrin (HBC) or 0.9% NaCl.
# Cells were collected from bone marrow (femur and tibia), spleen, peripheral blood, and thymus. For cell surface phenotyping, a lineage cocktail (Lin) was used including CD3 (for HSPC but not LSC analysis), CD4, CD8, Mac-1, Gr, B220, IgM, and Ter119 (eBioscience, San Diego, CA). Monoclonal antibodies against CD3 (separate fluorophore for LSC analysis), Sca-1, c-Kit, CD45.1, and CD45.2 were also used where indicated. Cell sorting and analysis were performed using an inFlux (BD), MoFlo (Dako, Ft. Collins, CO) and/or CyAn ADP (Dako, Ft. Collins, CO). Data analysis was performed using FlowJo software (Ashland, OR).
# pS^552-β-catenin = assay: FACS for pS552-β-catenin in populations from treated leukemic mice; type: in vivo, mouse; conditions: [Low]DXR; 4 days post-treatment; LSCs
# Method: Percent of LSC, HSPC or blast cell population expressing pS^552-β-catenin is indicated for each treatment. Numbers indicate mean±SD; n=3-5 per group.
# For FACS analysis using PE-conjugated monoclonal anti-pS552-β-catenin antibody, cells were washed twice after cell surface staining, resuspended in 250ul of BD Fixation/Permeabilization® solution, incubated for 20 minutes at 4°, washed 2× with 1 ml of 1×BD Perm/Wash Buffer®, resuspended with 100 ul 1×BD Perm/Wash Buffer®, added […] anti-pS552-β-catenin antibody per 100 ul solution containing up to 3 million cells, incubated 2 hours on ice with rocking (resuspended every 15 minutes), washed 2 times and resuspended in PBS+2% FBS for analysis. BM from β-cat knockout mouse was harvested at 2-3 weeks post-knockout induction and stained alongside other test samples.
# [3] = tested on: leukemia (T-ALL) in Pten:β-cat^Act mice; assay: Long-term survival of treated leukemic mice; type: in vivo, mouse
# Method: Treatment schematic and Kaplan-Meier curves of leukemic mice treated as indicated. Red arrow indicates day 0 in survival curve.
# Dashed line indicates day of final [Low]nanoDXR treatment.
# as §1
# [4] = tested on: human T-ALL blasts and pS^552-β-cat^+ LSCs; assay: Patient-derived xenografts of MRD+ pediatric T-ALL treated with [Low]DXR; type: in vivo; conditions: [Low]DXR 5 days, two weeks after transplantation; Pt 057, Pt 062
# Text: Shown is T-ALL blasts (CD45^+ c-Kit^−ve CD3^+) in Pt 057. Graphs indicate frequency of human CD45^+ cells (%)+SD.
# Graphs indicate frequency of human CD45^+ cells (%)±SD.
# [5] = BM FACS 5 days post-treatment, DXR as [Low]DXR 5×0.5 mg/kg, chemotherapy = Nelarabine+Dexamethasone 5 days
# [6] = clinical dose DXR 20 mg/kg alone
compound,measurement,setting,value
"COc1cccc2c1C(=O)c1c(O)c3c(c(O)c1C2=O)C[C@@](O)(C(=O)CO)C[C@@H]3O[C@H]1C[C@H](N)[C@H](O)[C@H](C)O1 [DXR, doxorubicin]",effect on HSPCs relative to vehicle,[1],lower effect
same,effect on LSCs relative to vehicle,[1],significantly reduced
same,effect on LSCs,[2]; [5],significantly reduced
same,effect on blast cells,[2]; [5],no significant effect
same,blast cell reduction when DXR substitutes for Nelarabine,"[2]; [Low]DXR with Dexamethasone, 10 days post-treatment",did not significantly reduce blast cells
same,HSPC frequency versus vehicle alone,[2]; [6],not significantly different
same,increase of LSC frequency among surviving cells,[2]; [6],5 fold
same,increase of blast cell frequency among surviving cells,[2]; [6],< 2 fold
same,toxicity in terms of absolute cell number,[2]; [6],broadly toxic to all cells
same,blast cell reduction when DXR substitutes for Nelarabine,"[2]; clinical equivalent dose DXR (5×4 mg/kg daily) with Dexamethasone, 10 days post-treatment",could substitute for a DNA-damaging agent in their reduction
same,reduction of LSCs,"[2]; free DXR, 5 doses of 0.15 μg/g, 10 days post-treatment",ineffective
same,pS552-β-catenin expression,pS^552-β-catenin,substantially reduced
same,survival compared to vehicle alone,[3]; clinical-dose DXR combined with chemotherapy,significantly reduced survival
same,improvement of survival,"[3]; mouse, in vivo",did not
same,engraftment of bulk blast cells,[4],not significantly changed
same,pS552-β-cat+ LSCs,[4],significantly reduced
